Literature values as cited in patent publication US8778840B2, “Soluble liquid formulations of quinclorac ammonium salts” (BASF SE, priority 2007, dated 2014).

Details: pH 7 at 20° C.

SMILES: O=C(O)c1c(Cl)ccc2cc(Cl)cnc12 [Quinclorac, 3,7-dichloro-8-quinolinecarboxylic acid]
- solubility in water: 0.065 mg/kg
